Key:
[1] = target: T1, Histamine-1 Receptors on Hela-S3 Cells (Homo sapiens, UniProt P35367); assay: Inhibition of [^3 H]-Pyrilamine Binding to Histamine-1 Receptors on Hela-S3 Cells; conditions: 0.5 h, 1 μM test compound, 37° C., 30 minutes, read-out: % Specific Binding
T1 construct: histamine-1 receptors on Hela-S3 cells (American Type Culture Collection); endogenous in cells; host or cells: HeLa S3 cells (American Type Culture Collection), intact cell suspension
Procedure: Inhibition of [^3 H]-Pyrilamine Binding to Histamine-1 Receptors on Hela-S3 Cells
The inhibition of [^3 H]-pyrilamine binding to histamine-1 receptors on Hela-S3 cells (American Type Culture Collection) was determined by isotopic labelling and filtration techniques. A suspension of the cells in buffer (25 ml, 0.5% Bovine Serum Albumin, 0.1% sodium azide, phosphate buffered saline (PBS)) was centrifuged at 1000 rpm for 5 minutes in a JOUAN CR 422 centrifuge, collected, resuspended in buffer (25 ml) and spun again. The cells were counted using a haemocytometer and resuspended in buffer to provide a final concentration of 4.5×10^6 cells ml^-1. A portion of the Hela S3 cell suspension (1 ml) was added to each assay tube containing 25 μl of vehicle (50% DMSO/buffer) or 25 μl of solution containing test compound (dissolved in DMSO and diluted with sufficient PBS to give a final test concentration of 1 μM) and 25 μl 0f [^3 H]-pyrilamine (supplied by Amersham International and diluted with PBS to 3 nM). The tubes were mixed and incubated at 37° C. for 30 minutes. The tubes were then spun at 4° C. at 2000 rpm for 2 minutes. The supematant was removed and the cells resuspended in buffer (repeated x2). The cells were suspended in 300 μl of a 2:1 solution of 1M sodium hydroxide and 1% sodium dodecyl sulphate. The tubes were left overnight before the contents were tranferred to a scintillation vial, treated with 10 ml, OPTIPHASE MP scintillation fluid (OPTIPHASE MP is a trade mark) and the radioactivity counted in a scintillation counter. Non-displcable binding (NDB) was determined using Astemizole (5×10^-5 M) in place of test compounds. Defining the counts for total binding from the vehicle control sample as "TB" and the counts for total binding with antagonist as "TBA" the percentage specific binding (%SB) can be determined from the following equation. [formula] Results

[2] = system: PAF-Induced Platelet Aggregation; assay: Inhibition of PAF-Induced Platelet Aggregation; type: cell-based, rabbit (male New Zealand White); conditions: Oryctolagus cuniculus; rabbit platelet-rich plasma, PAF 100 ng.ml^-1 (50 μl aliquot), 37° C.
Procedure: Inhibition of PAF-Induced Platelet Aggregation
Male New Zealand White rabbits (3.0-3.5 kg) were anaesthetised by intravenous administration of sodium pentobarbitone, […], via a marginal ear vein. The trachea was exposed and connected to a respiratory pump (Havard UK) to provide artificial ventilation. A carotid artery was exposed and cannulated and the animal was exsanguinated. Whole blood was collected in a syringe containing tri-sodium citrate (3.8% w/v) to a ratio of 1 part citrate:9 parts blood.
Collected blood was centrifuged at 180×g for 15 minutes at room temperature (21° C.) to prepare platelet-rich plasma (PRP). The remaining blood was then centrifuged at 1800×g for 10 minutes at room temperature to obtain platelet poor plasma (PPP).
Platelet count of the PRP was measured using a Technicon H1 blood cell differential analyser (Bayer Diagnostics UK) and adjusted with PPP to obtain a final platelet count of 500,000 platelets per μl of plasma, this being the normal physiological platelet count for rabbits. Corrected PRP was left to equilibrate at room temperature for 30 minutes before use.
Aggregation studies were carried out using 4-channel aggregometer (PAP-4C, BioData USA) as follows: 400 μl aliquots of PRP were placed in siliconised cuvettes and incubated to 37° C. for 1 to 2 minutes in the heating block of the aggregometer. Baseline (100% aggregation) was set up using PPP (500 μl in a siliconised cuvette). The PRP was placed into a measuring well of the aggregometer, and a stir bar was added. The sample was stirred at 1000 rpm. The machine was activated to set the 0% aggregation level. Test compound or vehicle (50 μl) was added to the PRP, where any effects on the baseline was noted. PAF (100 ng.ml^-1 as 50 μl aliqout) was added to the PRP 3 minutes after test compound or vehicle. Aggregation was measured for a further 4 minutes after PAF addition and the maximum aggregation over the 4 minutes was recorded.
The investigation of different concentrations of test compound was performed in triplicate. Data were expressed as […] of the sample and test compound data were compared to vehicle data to obtain % inhibition of the PAF-induced aggregation from which IC50 values could be determined.
PAF was made up in sterile saline (NaCl 0.9% w/v) containing BSA (0.25% w/v) from an initial stock solution (10 mg.ml^-1 in EtOH). Test compounds were made up as 1×10^-3 M stock solutions in sterile saline containing molar equivalents of 1N HCI (v/v) or in DMSO.

[3] = system: Histamine Induced Bronchoconstriction; assay: Histamine Induced Bronchoconstriction in the Anaesthetised Guinea Pig; type: in vivo, guinea pig (male Dunkin-Hartley); conditions: Cavia porcellus, 1 h, p.o., histamine infusion 10 μgkg^-1 min^-1 started one hour after oral dosing
Description: Histamine Induced Bronchoconstriction in the Anaesthetised Guinea Pig
(§1) Following oral administration of test compound or vehicle by oral gavage, male Dunkin-Hartley guinea pigs (350-400 g) were anaesthetised by intraperitoneal injection of 60 mgkg^-1 sodium pentobarbitone (Sagatal, May & Baker UK). Through a midline incision of the neck, the trachea was cannulated and connected to a small animal respirator (Harvard, UK). Animals were artificially ventilated at a rate of 30 breaths per minute with a tidal volume of 8-10 ml to give a resting tracheal inflation pressure of 15 mmHg as measured by a physiological pressure transducer (type P23XL, Spectramed USA) connected to a side arm of the respiratory circuit.
A jugular vein was cannulated for the administration of propranolol and for the infusion of histamine. A carotid artery was cannulated for the measurement of arterial blood pressure via a physiological pressure transducer (type P23XL, Spectramed USA). Blood pressure and tracheal inflation pressure were recorded on a thermal array chart recorder (type TA4000, Gould Electronics UK).
Following a suitable equilibration period, propranolol (1 mgkg^-1 i.v. & 3 mgkg ^-1 s.c. Sigma Chemical Co. UK) was administered to inhibit any resulting catecholamine release following histamine administration.
Histamine infusion (10 μgkg^-1 min^-1 at a rate of 10 mlhr^-1 using a perfusion pump type Perfuser securer FT, B. Braun Germany) was started at the one hour time point following oral administration of the test compound or vehicle. Changes in tracheal inflation pressure and blood pressure of drug treated animals were compared with changes from vehicle treated animals and ED50 values determined. One dose of test compound was investigated per animal.

[4] = system: PAF Induced Bronchoconstriction; assay: PAF Induced Bronchoconstriction in the Anaesthetised Guinea Pig; type: in vivo, guinea pig (male Dunkin-Hartley); conditions: 10 mgkg^-1, p.o., PAF 100 ngkg^-1 i.v. bolus one hour after oral dosing
Description: PAF Induced Bronchoconstriction in the Anaesthetised Guinea Pig
as §1, with “vehicle,” for “vehicle by oral gavage,”, “15mmHg” for “15 mmHg”
A jugular vein was cannulated for the administration of a bolus dose of propranolol and for the later administration of bolus PAF. A carotid artery cannulated for the measurement of arterial blood pressure via a physiological pressure transducer (type P23XL, Spectramed USA). Blood pressure and tracheal inflation pressure were recorded on a thermal array chart recorder (type TA4000, Gould Electronics UK).
Propranolol (1 mgkg^-1 i.v. & 3 mgkg^-1 s.c. Sigma Chemical Co. UK) was administered 10 minutes before PAF in order to prevent the bronchodilatory activity of catecholamines which may be released in response to PAF administration. PAF (100 ngkg^-1 i.v. bolus) was administered at the one hour time point following oral administration of the test compound or vehicle.
Changes in tracheal inflation pressure and blood pressure of drug treated animals were compared with changes from vehicle treated animals and percentage inhibition determined. One dose of test compound was investigated per animal.

T1 sequence (P35367 whole entry): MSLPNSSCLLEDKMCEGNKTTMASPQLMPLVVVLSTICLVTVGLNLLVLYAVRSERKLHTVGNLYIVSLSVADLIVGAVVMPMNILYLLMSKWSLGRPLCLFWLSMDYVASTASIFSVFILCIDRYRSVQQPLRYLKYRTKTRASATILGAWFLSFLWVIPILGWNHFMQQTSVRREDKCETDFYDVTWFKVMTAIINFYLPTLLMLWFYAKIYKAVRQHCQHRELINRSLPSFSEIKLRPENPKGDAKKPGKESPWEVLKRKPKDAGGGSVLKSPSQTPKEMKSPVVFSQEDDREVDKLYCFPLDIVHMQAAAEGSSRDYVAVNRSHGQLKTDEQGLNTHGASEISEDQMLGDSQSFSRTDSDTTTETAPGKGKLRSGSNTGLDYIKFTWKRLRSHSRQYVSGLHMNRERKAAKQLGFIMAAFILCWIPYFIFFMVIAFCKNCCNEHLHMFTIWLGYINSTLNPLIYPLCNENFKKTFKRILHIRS

## Cc1nc2cnccc2n1Cc1ccc(S(=O)(=O)N(C)[C@@H](CC(C)C)C(=O)OC(CCCN2CCC(C(O)(c3ccccc3)c3ccccc3)CC2)c2ccc(C(C)(C)C)cc2)cc1 (stereo partly drawn) [Example 2, N-Methyl-N-4-(1H-2-methylimidazo[4,5-c]pyridinylmethyl)-phenylsulphonyl-L-leucine-2-(4-[1,1-dimethylethyl]phenyl)-4-(hydroxydiphenylmethyl)-1-piperidinebutyl ester]
[1]
  activity at 1 µM: 57%
[2]
  IC50: 2100 nM

## Cc1ccc(/C(=C\CN2CCCC2)c2cccc(/C=C/C(=O)OC[C@H](CC(C)C)N(C)S(=O)(=O)c3ccc(Cn4c(C)nc5cnccc54)cc3)n2)cc1 [Example 8, (E)-3-(6-[Pyrrolidino-1-{4-tolyl}prop-1E-enyl]-2-pyridyl)acrylic acid, N-methyl-N-4-(1H-2-methylimidazo[4,5-c]pyridinylmethyl)-phenylsulphonyl-L-leucyl ester]
[3]
  ED50: 0.16 mg/kg
[4]
  % Inhibition: 46%

## Cc1nc2cnccc2n1Cc1ccc(S(=O)(=O)N(C)[C@@H](CC(C)C)C(=O)OCCCN2CCN(C(c3ccccc3)c3ccccc3)CC2)cc1 [Example 4, N-Methyl-N-4-(1H-2-methylimidazo[4,5-c]pyridinylmethyl)-phenylsulphonyl-L-leucine-3-(4-benzhydryl-piperazin-1-yl)-propyl ester]
[1]
  activity at 1 µM: 34%
[2]
  IC50: 190 nM

## Cc1ccc(/C(=C\CN2CCCC2)c2cccc(/C=C/COC(=O)[C@H](CC(C)C)N(C)S(=O)(=O)c3ccc(Cn4c(C)nc5cnccc54)cc3)n2)cc1 [Example 17, 4-Methyl-2-{methyl-[4-(2-methyl-imidazo[4,5-c]pyridin-1-ylmethyl)-phenylsulphonyl]-amino}-pentanoic acid-(E)-3-(6-[3-pyrrolidino-1-{4-tolyl}-prop-1E-enyl]-pyridin-2-yl)-prop-2-en-1-yl ester]
[1]
  activity at 1 µM: 47%
[2]
  IC50: 115 nM

## Cc1nc2cnccc2n1Cc1ccc(S(=O)(=O)N(C)[C@@H](CC(C)C)C(=O)N2CCC(=C3c4ccc(Cl)cc4CCc4cccnc43)CC2)cc1 [Example 6, 4-(8-Chloro-5,6-dihydro-11H-benzo[5,6]cyclohepta[1.2-b]-pyridin-11-ylidene)-1-(N-methyl-N-4-{1H-2-methylimidazo[4,5-c]pyridinylmethyl}-phenylsulphonyl-L-leucyl)-piperidine amide]
[3]
  ED50: 6.5 mg/kg
[1]
  activity at 1 µM: 79%
[2]
  IC50: 252 nM
[4]
  % Inhibition: 40%

## CCOC[C@H](CC(C)C)N(C/C=C/c1cccc(/C(=C/CN2CCCC2)c2ccc(C)cc2)n1)S(=O)(=O)c1ccc(Cn2c(C)nc3cnccc32)cc1 [Example 25, N-(S)-(1-Ethoxymethyl-3-methylbutyl)-N-{(E)-3-(6-[3-pyrrolidino-1-{4-tolyl}-prop-1E-enyl]-pyridin-2-yl)-prop-2-en-1-yl}-4-(1H-2-methylimidazo[4,5-c]pyridin-1-ylmethyl)-phenylsulphonamide]
[3]
  ED50: 0.5 mg/kg
[1]
  activity at 1 µM: 55%
[2]
  IC50: 420 nM
[4]
  % Inhibition: 50%

## CCOC[C@H](CC(C)C)N(CCCN(C)CCC(c1ccc(Cl)cc1)c1ccccn1)S(=O)(=O)c1ccc(Cn2c(C)nc3cnccc32)cc1 (stereo partly drawn) [Example 23, N-(3-{[3-(R,S)-(4-Chlorophenyl)-3-pyridin-2-yl-propyl]-methylamino}propyl)-N-(S)-(1-ethoxymethyl-3-methylbutyl)-4-(1H-2-methylimidazo[4,5-c]pyridin-1-ylmethyl)-phenylsulphonamide]
[1]
  activity at 1 µM: 33%
[2]
  IC50: 300 nM
